In patent US20240240145A1, “METHODS AND COMPOSITIONS FOR GENERATING MITOCHONDRIA REPLACED LYMPHOID CELLS” (Imel Biotherapeutics, Inc., priority 2021, published 2024):

How the values were obtained:
mouse NZB T cells = assay: TaqMan SNP assay of replacement of NZB T cell mtDNA with B6 MEF mtDNA after culture with rapamycin; format: cell-based; settings: 40 μg B6 MEF mitochondria
Experimental: Isolation and Cell Culture of Primary Mouse T lymphocytes: All the animal experiments were performed according to the animal experiment guidelines issued by the Animal Care and Use Committee of our institution (M2019-536). For mouse T lymphocytes isolation, spleens were removed from mouse after anesthetized and sacrificed. Spleens were washed with PBS (FUJIFILM Wako Pure Chemical Corp.), then mashed and filtrated to extract splenocytes. Mouse T cells were highly purified from splenocytes by immunomagnetic negative selection using EasySep mouse T cell isolation kit (Veritas, Santa Clara, CA, USA) according to the manufacturer's recommendations. Isolated mouse T cells were cultured in Advanced RPMI1640 medium supplemented with 10% FBS, 1% penicillin/streptomycin, 20 mM L-glutamine (Thermo Fisher Scientific incorporated), […] recombinant human IL-2 (PeproTech, Rocky Hill, NJ, USA), which is activated with Dynabeads mouse T-activator CD3/CD28 (Thermo Fisher Scientific incorporated). Cells were incubated at 37 °C in a humidified 5% CO2 incubator.
Mitochondrial Isolation and Transfer to Mouse T cells: Mitochondria were isolated from B6 murine embryonic fibroblasts (MEF). […] The amounts of isolated mitochondria were expressed as protein concentration using a Bio-Rad protein assay kit (Bio-Rad Laboratories, incorporated, Richmond, CA, USA). […]

human GJ T cells = assay: TaqMan SNP assay of transfer of EPC100 mitochondria to human GJ T cells cultured with rapamycin; format: cell-based; settings: for portion of donor mtDNA detected in T cells: after 7 days, EPC100 donor mitochondria
Experimental: Isolation and Cell Culture of Human T cells: Venous heparinized blood was taken according to the standard procedures from the median cubital vein. Human peripheral blood mononuclear cells (PBMC) were isolated from human peripheral blood using density-gradient centrifugation with 1.077 g/ml percoll (GE Healthcare Life Sciences, Buckinghamshire, England). Cells were cultured in TexMACS medium (Miltenyi Biotec) supplemented with 10% fetal bovine serum, 1% penicillin/streptomycin (Thermo Fisher Scientific incorporated), […] of IL-7, and […] of IL-15 on cell culture plates coated with anti-CD3 antibody and anti-CD28 antibody (Miltenyi Biotec). Cells were incubated at 37° C. in a humidified 5% CO2 incubator.
Mitochondrial Isolation and Transfer to Human T cells: The immortalized human uterine endometrial gland-derived mesenchymal cell line, EPC100 (Japanese Collection of Research Bioresources Cell Bank, JCRB1538) was used as an exemplary donor of exogenous mitochondria for mitochondrial transfer to human primary T cells by using the same protocol as that of murine protocol.
TaqMan Single Nucleotide Polymorphism (SNP) Assay: Based upon the differences in the mitochondrial HVR1 sequences of human GJ T cells and EPC100 cells, and the mitochondrial ND1 of B6 mouse and NZB mouse, the probes and primer set forth in Tables 1 and 2 were designed, which provide sensitivity and specificity in the TaqMan SNP assay. To determine mutation ratios, we designed wild-type and mutant allele-specific TaqMan probes for the TaqMan SNP assay. The extracted DNA (1 ng) was used for quantitative PCR with the TaqMan Universal PCR Master Mix kit (Thermo Fisher Scientific Incorporated) on a CFX connect real-time system (Bio-Rad Laboratories, Incorporated) under the following conditions: 40 cycles of PCR (95° ° C. for 15 see and 60° ° C. for 1 min) after initial denaturation (95° ° C. for 10 min). […] The mtDNA copy number was estimated from the content ratio of 12S rRNA on mtDNA and ACTB (or Actb) on nuclear DNA by delta cycle threshold-based relative quantification. […]

## CO[C@H]1C[C@@H]2CC[C@@H](C)[C@@](O)(O2)C(=O)C(=O)N2CCCC[C@H]2C(=O)O[C@H]([C@H](C)C[C@@H]2CC[C@@H](O)[C@H](OC)C2)CC(=O)[C@H](C)/C=C(\C)[C@@H](O)[C@@H](OC)C(=O)[C@H](C)C[C@H](C)/C=C/C=C/C=C/1C [rapamycin]
Mouse NZB T cells; centrifugation and two days of rapamycin treatment (100-1000 nM), FIG. 5A
  donor mtDNA in the recipient T cells: 45-80%
Mouse NZB T cells; day 7, rapamycin 100-1000 nM, FIG. 5B
  donor mtDNA in the recipient T cells: 70-90%
Human GJ T cells; 50 nM rapamycin
  portion of donor mtDNA detected in T cells: less than 40%
Human GJ T cells; 500 nM rapamycin
  portion of donor mtDNA detected in T cells: approximately 50%
Human GJ T cells; human GJ T cells contacted with EPC100 donor mitochondria in the presence of rapamycin (50 to 500 nM), no mtDNA depletion, FIG. 3B
  mtDNA content in T cells consisting of mtDNA from EPC100 cells: 40-50%
